Positions of bridges follow the written chain, without caps; N, C: chain ends. Residues, ends and D or L forms follow the SMILES beside them. rhodamine = not defined here
Assays:
frizzled-2 (rFzd-2) = target: T1, frizzled-2 (rFzd-2) (Rattus norvegicus, UniProt Q08464); assay: Activity assay: luciferase reporter in HEK superTOPflash cells transfected with frizzled-2; type: cell-based; settings: for block of Wnt3a-induced luciferase activity, rFzd-2: peptide 1.10^−8 M
T1 construct: expressed in transfected cells; host or cells: HEK293 superTOPflash (transient, Fugene6, pcDNA3.1/hygro)
Description: (§1) Human embryonic kidney (HEK) cells were used for screening. These cells have a luciferase construct stably transfected into the genome (see FIG. 2A), such that when the frizzled receptor is activated and β-catenin is increased, the luciferase is activated by transcription and light can be measured.
(§2) The peptides were tested by transfecting the frizzled-1 or the frizzled-2 receptor and addition of UM206(S-S) to the cell culture. For testing antagonistic activity, UM206 was added and the natural ligand Wnt3a was added, which is a natural stimulus for the canonical pathway.
(§3) Day 2: Transfection 12-Well Plates • heat Fugene6 and DNA 15 minutes at RT • 2 ml serum-free medium in tube • add 3 μl fugene • add 2 μg DNA • incubate 30 minutes at RT • wash with PBS • add 50 μl transfectiemix • add 1 ml antibiotica-free medium
(§4) Day 3: Add Conditioned Medium or UM206
(§5) Day 4: Luciferase Activity Measurements • remove medium • wash with PBS • add 500 μl ⅕ lysisbuffer • shake for 60 minutes • centrifuge in tube • 20 μl lysaat and 50 μl luciferase in new tube for measurement • vortex • measure
(§6) Three areas of high homology that contained two cysteines are underlined (UM207), (UM208) and (UM206). In FIGS. 9B through 9D, the inhibitory effect of these three peptides on Wnt3a-induced luciferase activity in HEK293-superTOPflash is shown. […] Again, the peptides by themselves had no effect on the luciferase activity.
(§7) To determine the inhibitory constant of UM206-8, HEK293-superTOPflash cells were transfected with either rFzd-1 or -2 and incubated with Wnt3a (10^−9M) in the presence of increasing concentrations of either of the peptides (FIG. 15). For UM206, a biphasic inhibition curve was observed that was best fitted with a two-binding-state model.
(§8) The cell lines were cultured in 75 cm^2 culture flasks (Corning, Schiphol, the Netherlands) in Dulbeco's modified essential medium with L-glutamine (2 mM), 10% fetal calf serum (Invitrogen, Merelbeke, Belgium), and 1% gentamycin (Sigma-Aldrich, Zwijndrecht, The Netherlands). Before starting the experiment, the cell lines were treated with plasmocin 25 μg/ml (Invivogen, Toulose, France) and tested with a mycoalert mycoplasma detection kit (Lonza, Rockland Me., USA). Cells were transiently transfected with Fugene6 (Roche, Indianapolis Ind., USA) with plasmid DNA, pcDNA3.1/hygro (Invitrogen) with frizzled-1/2/4 or Wnts 3a-5a or with pcDNA3.0 (Invitrogen) containing the β-catenin or frizzled-5 sequence. After transfection, the cells were cultured for 24 hours in conditioned medium, collected from the cultured L-cells, L-cells with Wnt3a or 5a (Invitrogen). At the same moment the antagonist was added.

frizzled-1 (rFzd-1) = target: T2, frizzled-1 (rFzd-1) (Rattus norvegicus, UniProt Q08463); assay: Activity assay: luciferase reporter in HEK superTOPflash cells transfected with frizzled-1; type: cell-based; settings: for block of Wnt3a-induced luciferase activity, rFzd-1: peptide 1.10^−8 M
T2 construct: expressed in transfected cells; host or cells: HEK293 superTOPflash (transient, Fugene6, pcDNA3.1/hygro)
Description: as §1, §2, §3, §4, §5, §6, §7, §8

hFzd-4 = target: T3, hFzd-4 (Homo sapiens, UniProt Q9ULV1); assay: Receptor specificity: luciferase in HEK293 superTOPflash cells overexpressing hFzd-4; type: cell-based; settings: FIG. 3, Panel F
T3 construct: expressed in transfected cells; host or cells: HEK293 superTOPflash (transient, Fugene6, pcDNA3.1/hygro)
T3 sequence (Q9ULV1 37-537): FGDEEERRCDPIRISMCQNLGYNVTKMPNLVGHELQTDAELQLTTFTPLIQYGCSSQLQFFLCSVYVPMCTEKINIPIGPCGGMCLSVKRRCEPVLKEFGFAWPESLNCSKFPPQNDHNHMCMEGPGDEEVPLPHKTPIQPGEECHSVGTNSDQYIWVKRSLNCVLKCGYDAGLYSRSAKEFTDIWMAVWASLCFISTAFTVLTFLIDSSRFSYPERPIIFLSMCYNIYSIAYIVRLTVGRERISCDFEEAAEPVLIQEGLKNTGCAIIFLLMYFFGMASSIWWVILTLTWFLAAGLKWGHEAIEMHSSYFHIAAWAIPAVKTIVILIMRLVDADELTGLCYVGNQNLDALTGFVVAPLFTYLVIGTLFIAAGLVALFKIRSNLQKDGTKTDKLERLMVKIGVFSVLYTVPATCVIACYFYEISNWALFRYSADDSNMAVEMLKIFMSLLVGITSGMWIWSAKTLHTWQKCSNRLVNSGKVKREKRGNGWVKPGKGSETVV
Description: In FIG. 3, Panel E, the efficacy of UM206 to block the Wnt3a-induced activation of luciferase activity in HEK293 superTOPflash cells transfected with different Fzds is shown.
as §8

canonical Wnt signaling = assay: Activity assay (Example 1): TOPflash luciferase reporter in HEK (HEK293-superTOPflash) cells, receptor not specified; type: cell-based, human; settings: for activity on the frizzled receptor: antagonist or agonist: model of Example 1; for effect of the peptide by itself on luciferase activity: without Wnt3a
Description: as §1, §2
Transfection and Luciferase Measurement:
Plate cells in 12-well plates
as §3, §4, §5, §6, §8
For the luciferase experiments not in HEK cells, the cells were additionally transfected with a TOPflash construct, eight TCF/LEF binding sites cloned into the pTA-Luc vector. Luciferase activity was measured using luciferase assay system (Promega, Madison Wis., USA).

Fzd-1 and -2 = assay: Binding of rhodamine-labeled UM206 to frozen sections of mouse kidney and small intestine and its blocking
Description: Specificity of the binding site was confirmed by prior incubation of the tissue sections with UM207 (1.10^−7 M) or recombinant Wnt3a (1.10^−8 M).
One-half of the hearts of the mice was embedded in paraffin and cut in 4 μm sections. The paraffin sections were rehydrated and washed in PBS. One section was stained with AZAN, allowing an accurate determination of the infarct size. To visualize the myofibroblasts in the infarct area, the sections were incubated with an antibody directed against α-smooth muscle actin (Sigma-Aldrich), followed by incubation with the peroxidase-conjugated secondary antibody (Vector laboratories). Nuclei were visualized by hematoxylin. Photos were taken with a Leica (CTR500, 63×/0.85) camera and analyzed with the Quantimet program (QWin/QGo). An examiner blinded to the groups of the animals obtained all measurements. For the experiments with Rhodamine-labeled UM206, frozen sections (4 μm) of mouse kidney and small intestine were used.

T1 sequence (Q08464 29-570): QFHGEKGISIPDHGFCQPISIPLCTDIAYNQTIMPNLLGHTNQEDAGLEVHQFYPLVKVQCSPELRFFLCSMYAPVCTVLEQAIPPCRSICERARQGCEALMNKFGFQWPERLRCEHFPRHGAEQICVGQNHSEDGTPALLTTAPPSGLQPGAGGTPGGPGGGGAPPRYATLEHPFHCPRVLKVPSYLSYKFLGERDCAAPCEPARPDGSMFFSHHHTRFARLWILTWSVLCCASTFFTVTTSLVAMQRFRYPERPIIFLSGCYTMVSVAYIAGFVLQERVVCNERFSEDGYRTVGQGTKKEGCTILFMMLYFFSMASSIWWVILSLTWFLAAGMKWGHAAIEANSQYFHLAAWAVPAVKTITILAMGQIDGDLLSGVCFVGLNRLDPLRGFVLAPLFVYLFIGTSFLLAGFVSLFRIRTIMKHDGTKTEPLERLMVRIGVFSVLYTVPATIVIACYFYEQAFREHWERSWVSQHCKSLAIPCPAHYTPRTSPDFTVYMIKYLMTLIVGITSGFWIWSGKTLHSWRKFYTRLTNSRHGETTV
T2 sequence (Q08463 69-641): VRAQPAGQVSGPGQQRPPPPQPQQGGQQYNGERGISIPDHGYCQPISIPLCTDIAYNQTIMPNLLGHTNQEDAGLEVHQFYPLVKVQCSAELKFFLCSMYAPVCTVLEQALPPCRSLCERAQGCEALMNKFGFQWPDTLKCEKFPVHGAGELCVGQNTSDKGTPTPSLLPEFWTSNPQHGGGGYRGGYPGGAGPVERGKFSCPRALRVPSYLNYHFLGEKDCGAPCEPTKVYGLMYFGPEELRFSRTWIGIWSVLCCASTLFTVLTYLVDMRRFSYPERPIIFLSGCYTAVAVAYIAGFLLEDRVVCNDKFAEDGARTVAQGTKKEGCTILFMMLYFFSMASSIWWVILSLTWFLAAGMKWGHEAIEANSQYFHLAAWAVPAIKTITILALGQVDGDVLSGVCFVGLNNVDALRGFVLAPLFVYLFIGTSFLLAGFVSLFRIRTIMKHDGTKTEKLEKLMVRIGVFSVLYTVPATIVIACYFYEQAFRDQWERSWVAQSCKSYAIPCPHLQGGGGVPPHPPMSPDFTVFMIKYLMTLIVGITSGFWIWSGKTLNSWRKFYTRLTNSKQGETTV

block of Wnt3a-induced luciferase activity, rFzd-2 (frizzled-2 (rFzd-2))	block of Wnt3a-induced luciferase activity, rFzd-1 (frizzled-1 (rFzd-1))	Molecule	activity on the frizzled receptor: antagonist or agonist (canonical Wnt signaling)	effect of the peptide by itself on luciferase activity (canonical Wnt signaling)	other results
		CSCC[C@@H]1NC(=O)CNC(=O)[C@H](CCC(=O)O)NC(=O)[C@H](CO)NC(=O)[C@H]([C@@H](C)O)NC(=O)[C@H](CCCCN)NC(=O)[C@H](CC(N)=O)NC(=O)[C@@H](NC(C)=O)CSSC[C@@H](C(=O)N[C@@H](CCC(=O)O)C(=O)N[C@@H](CC(C)C)C(N)=O)NC(=O)CNC(=O)[C@H](CC(=O)O)NC1=O [UM206(S-S)] (Ac-CNKTSEGMDGCEL-NH2; disulfide 1-11)	potent agonist		agonist activity at frizzled-2 (frizzled-2 (rFzd-2); FIG. 3, Panel F): specific agonist; agonist activity at frizzled-1 (frizzled-1 (rFzd-1); FIG. 3, Panel F): specific agonist; agonist activity at frizzled-4 (hFzd-4): not for frizzled-4 or frizzled-5
		UM206-rhodamine: UM206 with rhodamine attached to Lys^3 (Ac-CNK(rhodamine)TSEGMDGCEL-NH2; cysteine pairing not given here; reading uncertain)			staining of tissue sections (Fzd-1 and -2; 1.10^−8 M, 15 minutes, two-foton microscopy): staining of tubular epithelium and panneth cells; effect of rhodamine attachment to Lys^3 on IC50 for blocking Wnt3a-induced luciferase expression (canonical Wnt signaling; HEK293 superTOPflash cells, not shown): did not affect its IC50 value
blocked almost completely	blocked almost completely	CC[C@H](C)[C@H](NC(=O)CNC(C)=O)C(=O)N[C@@H](CCCCN)C(=O)N[C@@H](CCC(=O)O)C(=O)N[C@@H](CS)C(=O)N[C@@H](CCC(N)=O)C(=O)N[C@@H](Cc1ccc(O)cc1)C(=O)N[C@@H](CCC(N)=O)C(=O)N[C@@H](Cc1ccccc1)C(=O)N[C@@H](CCCNC(=N)N)C(=O)N[C@@H](Cc1c[nH]cn1)C(=O)N[C@@H](CCCNC(=N)N)C(=O)N[C@@H](CCCNC(=N)N)C(=O)N[C@@H](Cc1c[nH]c2ccccc12)C(=O)N[C@@H](CC(N)=O)C(=O)N[C@@H](CS)C(=O)N[C@@H](CO)C(=O)N[C@H](C(=O)N[C@H](C(=O)N[C@@H](CC(=O)O)C(N)=O)C(C)C)[C@@H](C)O [UM207] (Ac-GIKECQYQFRHRRWNCSTVD-NH2)	potent antagonist	none of the three peptides by itself could induce an increase in luciferase activity	blocking of UM206-rhodamine binding by prior incubation (Fzd-1 and -2; UM206-rhodamine 1.10^−8 M, UM207 1.10^−7 M, Wnt3a 1.10^−8 M): completely abolished the binding of UM206-rhodamine
		CNVSSHGIDGCDL (listed as Homo sapiens) [peptide derived from the area of Wnt3a homologous to UM206]			antagonistic properties of UM206 analogues (canonical Wnt signaling; alanine scan and modifications, 1.10-9 M): potency was lower than that of UM206
blocked almost completely	blocked almost completely	CC(=O)NCC(=O)N[C@@H](CO)C(=O)N[C@@H](CS)C(=O)N[C@@H](CO)C(=O)N[C@@H](CC(C)C)C(=O)N[C@@H](CCCCN)C(=O)N[C@H](C(=O)N[C@@H](CS)C(=O)N[C@@H](Cc1c[nH]c2ccccc12)C(=O)N[C@@H](CC(C)C)C(=O)N[C@@H](CCC(N)=O)C(=O)N[C@@H](CC(C)C)C(=O)N[C@@H](C)C(=O)N[C@@H](CC(=O)O)C(N)=O)[C@@H](C)O [UM208, GSCSLKTCWLQLAD] (Ac-GSCSLKTCWLQLAD-NH2)		none of the three peptides by itself could induce an increase in luciferase activity	

Source: patent publication US20150071856A1, “ANTAGONISTIC PEPTIDES FOR FRIZZLED-1 AND FRIZZLED-2” (Universiteit Maastricht, priority 2013, published 2015)
